{
  "source": "paper PMC11645656",
  "about": "“MRGPRX4 mediates phospho-drug associated pruritus in a humanized mouse model” (Science translational medicine, 2024)",
  "target": "T1, MRGPRX4 (S83) (Homo sapiens, UniProt Q96LA9, L83S)",
  "T1 construct": "expressed in transfected cells",
  "T1 sequence (Q96LA9 whole entry L83S)": "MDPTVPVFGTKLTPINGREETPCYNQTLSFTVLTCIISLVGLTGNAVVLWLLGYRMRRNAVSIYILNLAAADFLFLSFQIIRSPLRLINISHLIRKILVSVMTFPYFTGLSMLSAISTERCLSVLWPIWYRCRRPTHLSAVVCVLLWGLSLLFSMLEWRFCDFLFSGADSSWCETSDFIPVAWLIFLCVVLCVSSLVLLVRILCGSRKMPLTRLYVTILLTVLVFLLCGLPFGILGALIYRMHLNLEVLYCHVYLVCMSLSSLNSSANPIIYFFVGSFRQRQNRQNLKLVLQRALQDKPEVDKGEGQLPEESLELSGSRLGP",
  "experiment": "EC50 determination, intracellular calcium mobilization in MRGPRX4 stably expressed HEK293 cells (FLIPR Calcium 5, Flexstation-3)",
  "format": "cell-based",
  "design": "Fig. 1D dose-response, calcium mobilization response (individual replicate) / calcium mobilization response (Fig. 1D dose-response raw data): unit not given here",
  "settings": "for EC50: read-out: EC50; for calcium mobilization response (Fig. 1D dose-response raw data): individual replicate values",
  "experimental": "HEK293 cells and MRGPRX4 stably expressed HEK293 cells were seeded in 100 μl culture media on 96-well plates at a density of 40,000 cells per well and incubated overnight. The next day, the media were replaced with a dye-loading solution from the FLIPR Calcium 5 assay kit (Molecular Devices), diluted in Hank's Balanced Salt Solution (HBSS) with 20 mM HEPES, pH 7.4. After 1 h of incubation at 37°C, cells were allowed to recover for 10 min in the dark at room temperature prior to performing intracellular calcium mobilization assay in a Flexstation-3 instrument with SoftMax®Pro 7.1 software (Molecular Devices). Serial concentrations of tested drugs were prepared in HBSS/HEPES solution at 3X concentration. […] Compounds were tested in triplicates and the signals were averaged. Responses were determined by subtracting the minimum signal (at the baseline before adding the drug) from the maximum signal (obtained after drug stimulation). Four-parameter logistic (4PL) curve fit was used to plot the dose-response curves. […] Both dose-response curve fitting and EC50s calculation are computed with GraphPad Prism software (version: 6.o or above).",
  "note": "Where “and” joins values, the source holds several entries; their conditions need not be identical. Equal values may be shown once. Read-outs that look alike come from different tables or passages of the source.",
  "data": [
    {"smiles": "C[C@]12CCC(=O)C=C1CC[C@@H]1[C@@H]2[C@@H](O)C[C@@]2(C)[C@H]1CC[C@]2(O)C(=O)COC(=O)CCC(=O)O", "note": "[Hydrocortisone 21-hemisuccinate]", "values": [
      {"measurement": "EC50", "setting": "table S1", "result": "> 500", "unit": "µM"}
    ]},
    {"smiles": "CC[C@@]1(c2ccccc2)NC(=O)N(C)C1=O", "note": "[(S)-mephenytoin]", "values": [
      {"measurement": "calcium mobilization response (Fig. 1D dose-response raw data)", "setting": "concentration 4.88281e-7 M", "result": "-20.370 and -28.895 and -20.737 and -16.113 and -11.794 and -17.288 and -8.111 and -30.820 and -18.667"},
      {"measurement": "calcium mobilization response (Fig. 1D dose-response raw data)", "setting": "concentration 9.76563e-7 M", "result": "-14.910 and -10.110 and -14.446 and -15.834 and -19.023 and -15.341 and -3.659 and -28.710 and -12.463"},
      {"measurement": "calcium mobilization response (Fig. 1D dose-response raw data)", "setting": "concentration 1.95313e-6 M", "result": "-18.478 and -17.267 and -18.784 and -17.855 and -11.934 and -14.257 and -17.051 and -23.967 and -8.270"},
      {"measurement": "calcium mobilization response (Fig. 1D dose-response raw data)", "setting": "concentration 3.90625e-6 M", "result": "-5.757 and -11.730 and -8.574 and 8.283 and -10.074 and -11.646 and -8.442 and -1.458 and -9.849"},
      {"measurement": "calcium mobilization response (Fig. 1D dose-response raw data)", "setting": "concentration 7.8125e-6 M", "result": "26.923 and 9.795 and -10.857 and -10.275 and -14.955 and -11.140 and -1.065 and -2.234 and -1.955"},
      {"measurement": "calcium mobilization response (Fig. 1D dose-response raw data)", "setting": "concentration 1.5625e-5 M", "result": "9.387 and -3.753 and 17.104 and -13.591 and -6.859 and -9.499 and -1.610 and -1.506 and -0.489"},
      {"measurement": "calcium mobilization response (Fig. 1D dose-response raw data)", "setting": "concentration 3.125e-5 M", "result": "7.318 and 16.609 and 24.858 and -11.449 and -15.821 and -20.419 and 0.176 and 0.206 and 0.166"},
      {"measurement": "calcium mobilization response (Fig. 1D dose-response raw data)", "setting": "concentration 6.25e-5 M", "result": "20.640 and 67.105 and 19.512 and -1.060 and 14.827 and -6.587 and 28.221 and 5.104 and 23.894"},
      {"measurement": "calcium mobilization response (Fig. 1D dose-response raw data)", "setting": "concentration 0.00025 M", "result": "56.723 and 43.018 and 21.772 and 14.354 and 43.622 and 16.555 and 1.733 and 79.374 and 16.915"},
      {"measurement": "calcium mobilization response (Fig. 1D dose-response raw data)", "setting": "concentration 0.0005 M", "result": "-10.031 and 14.167 and 0.209 and 8.392 and 6.582 and -2.785 and 5.320 and 0.368 and 2.580"}
    ]},
    {"smiles": "C[C@@H]1C[C@H]2[C@@H]3C[C@@H](O)C4=CC(=O)C=C[C@]4(C)[C@@]3(F)[C@@H](O)C[C@]2(C)[C@@]1(O)C(=O)CO", "note": "[6b-hydroxy Dexamethasone]", "values": [
      {"measurement": "Fig. 1D dose-response, calcium mobilization response (individual replicate)", "setting": "Concentration 9.76563e-7 M", "result": "-11.185 and -2.950 and -9.064 and -1.271 and -4.466"},
      {"measurement": "Fig. 1D dose-response, calcium mobilization response (individual replicate)", "setting": "Concentration 1.95313e-6 M", "result": "-4.343 and -9.147 and -5.890 and -0.806 and -7.669"},
      {"measurement": "Fig. 1D dose-response, calcium mobilization response (individual replicate)", "setting": "Concentration 3.90625e-6 M", "result": "-10.884 and -6.013 and -8.580 and -8.133 and -5.676"},
      {"measurement": "Fig. 1D dose-response, calcium mobilization response (individual replicate)", "setting": "Concentration 7.8125e-6 M", "result": "-1.007 and -6.768 and -0.871 and -6.992 and -1.487"},
      {"measurement": "Fig. 1D dose-response, calcium mobilization response (individual replicate)", "setting": "Concentration 1.5625e-5 M", "result": "-3.580 and -12.887 and -7.336 and -12.885 and -3.031"},
      {"measurement": "Fig. 1D dose-response, calcium mobilization response (individual replicate)", "setting": "Concentration 3.125e-5 M", "result": "-6.945 and -4.243 and -10.704 and -6.397 and -13.033"},
      {"measurement": "Fig. 1D dose-response, calcium mobilization response (individual replicate)", "setting": "Concentration 6.25e-5 M", "result": "-3.167 and -3.420 and -21.978 and -8.518 and -4.898"},
      {"measurement": "Fig. 1D dose-response, calcium mobilization response (individual replicate)", "setting": "Concentration 0.00025 M", "result": "-19.291 and -10.466 and -0.309 and -10.053 and -7.780"},
      {"measurement": "Fig. 1D dose-response, calcium mobilization response (individual replicate)", "setting": "Concentration 0.0005 M", "result": "-6.623 and -13.594 and -13.062 and -8.352 and -18.691"},
      {"measurement": "Fig. 1D dose-response, calcium mobilization response (individual replicate)", "setting": "Concentration 0.001 M", "result": "-11.685 and -12.391 and -8.163 and -15.688 and -9.331"}
    ]},
    {"smiles": "C[C@]12C=CC(=O)C=C1CC[C@@H]1[C@@H]2[C@@H](O)C[C@@]2(C)[C@H]1CC[C@]2(O)C(=O)COP(=O)(O)O", "note": "[Prednisolone phosphate]", "values": [
      {"measurement": "EC50", "setting": "MRGPRX4 stably expressed HEK293 cells, calcium mobilization", "result": 0.267, "unit": "µM"},
      {"measurement": "Hill coefficient", "setting": "dose-response curve fitting, table S1", "result": 0.753}
    ]}
  ]
}
